According to patent US20250115597A1, “TYK2 INHIBITORS AND COMPOSITIONS AND METHODS THEREOF” (LYNK PHARMACEUTICALS CO. LTD., priority 2021, published 2025):
Read-outs that look alike come from different tables or passages of the source.

Assays:
[1] = Plasma protein binding by equilibrium dialysis; type: in vitro ADME; conditions: human plasma, equilibrium dialysis 5 hours at 37° C.; read-out: % Bound (human) (converted)
Experimental: Plasma Protein Binding by Equilibrium Dialysis
Aliquots of test compound stock solution and warfarin stock solution were spiked into plasma to give the matrix solutions with theoretical concentrations of test compound at 0.2 and 2 μM or warfarin at 2 μM. Immediately transfer 50 μL of the spiked plasma solution suspension to a 96-well plate to act as T=0 control sample. Assemble the dialysis set up following the manufacturer's instructions. Load cells with 150 μL of plasma sample and dialyzed against equal volume of dialysis buffer (PBS). The assay is performed in duplicate. Cover the unit with gas permeable lid and incubate for 5 hours at 37° C. at 100 rpm in a constant temperature shaking box. At the end of incubation, remove lid and pipette 50 μL of post-dialysis samples from both buffer and plasma solution chambers into separated 96-well plate for analysis, respectively. Add 50 μL of plasma solution to the buffer samples, and an equal volume of PBS to the collected plasma solution samples. Shake the plate at 1000 rpm for 2 minutes and add 600 μL of 50% ACN/MeOH containing an appropriate internal standard (IS) to precipitate protein and release compound. Vortex at 1000 rpm for 10 minutes. Centrifuge for 10 minutes at 4000 rpm. Then transfer 75 μL of the supernatant to new 96-well plates for analysis. Add 150 μL of distilled water to each sample and mix for analysis by LC-MS/MS.
The free rate (% Unbound), binding rate (% Bound), and recovery rate (% Recovery) of the compound are calculated as follows: […]

[2] = molecular target: T1, Ba/F3-FL-TYK2-P760L cells (Homo sapiens, UniProt P29597, P760L, cells depend on it); experiment: Anti-proliferative assay, Ba/F3-FL-TYK2-P760L cells (Cell-Titer Glo); type: cell-based; conditions: 72 h, read-out: BaF3-FL-T2P760L IC50
T1 construct: BaF3-FL-T2P760L (nM)
Method in brief: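 Compound exposure ran 72 h at 37 °C in 5% CO2 across nine 3-fold concentrations from a 20 μM top dose, added 24 h after seeding 2000 cells/well.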

TYK2-JH2 domain = molecular target: T2, TYK2-JH2 domain (Homo sapiens, UniProt P29597); experiment: Binding activity test for JH2 domain of TYK2 (Tb-antibody/tracer FRET); conditions: for JAK1/TYK2 selectivity: ratio JAK1-JH2 IC50 / TYK2-JH2 IC50
T2 construct: IC50 on JH2 domain activity (nM)
Method in brief: (§1)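 FRET read-out after 60 min at 25° C plus overnight at 4° C; tracer displacement detected via Tb-labelled antibody on the JH2 domain. Dose-response used 11 points at 3-fold dilution.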

[3] = Microsomal metabolic stability assay; type: in vitro ADME; conditions: pH 7.4, 0.5 mg/mL protein, 1 μM compound
Method in brief: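 Parent loss was tracked by LC/MS/MS at 0, 5, 15, 30 and 45 min, with half-life derived from the ln(% remaining)–time slope. Incubation at 37 °C, pH 7.4 phosphate/EDTA buffer: 0.5 mg/mL microsomes, 1 μM compound, NADPH-regenerated (2 mM).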

JAK1-JH2 domain = molecular target: T3, JAK1-JH2 domain (Homo sapiens, UniProt P23458); experiment: Binding activity test for JH2 domain of JAK1 (Tb-antibody/tracer FRET)
T3 construct: IC50 on JH2 domain activity (nM)
Method in brief: as §1

[4] = Hepatocytes metabolic stability assay; type: in vitro ADME; conditions: cryopreserved hepatocytes, human hepatocytes, 1.0×10^6 cells/mL; for CLint scaled at 1 μM: read-out: Human hepatocyte Clint(liver); for half-life at 1 μM: read-out: Human hepatocyte stability T1/2
Experimental: Hepatocytes Metabolic Stability Assay
The vials of cryopreserved hepatocytes were removed from the liquid nitrogen container and immediately immersed in a 37° C. water bath for approximately 2 min. The melted ice pellets were transferred into tubes containing 50 mL of pre-warmed thawing medium and mixed well by gently inverting the tubes, and then centrifuged at 500 rpm for 3 minutes at room temperature. The supernatants were discarded, and cell pellets were re-suspended by adding appropriate volumes of pre-warmed incubation medium. The cells viability of each species was determined using Trypan Blue exclusion. Add 50 μL of pre-warmed 2× dosing solution to the wells designated for different time points. Then 50 μL of cells suspension (2×10^6 cells/mL) were added into appropriate wells at corresponding time points of T15, T30, T60, T120. Start timing and put the plate in an incubator at 37° C. For TO sample, add 300 μL of ACN containing internal standard to the wells, mix gently, then add 50 μL of pre-warmed hepatocytes solution (2×10^6 cells/mL). The concentration of test compound was 1 μM and 1.0×10^6 cells/mL in the final incubation. At each corresponding time point, test and control compounds reaction samples were stopped by adding 300 μL acetonitrile containing internal standard. All sample plates were thoroughly mixed and centrifuged at 5000×g for 15 minutes. The supernatants were diluted at ratio of 1:1 with ultra-pure water for test and positive controls. Then submitted for LC-MS/MS analysis.
The analyte/internal standard peak area ratios were converted to percentage remaining with the following equation: […]
The in vitro elimination constant, k of test compounds and control compounds were calculated from a log linear plot of % Remaining versus time, then the half-life (T1/2), the estimation of the in vitro hepatic intrinsic clearance (CLint) values were calculated from substrate disappearance rate in hepatocytes incubation: […]

pSTAT1 = experiment: Phosphorylation inhibition of STAT in human whole blood, IFN-alpha stimulated (flow cytometry); type: cell-based; conditions: 20 min; human whole blood, IFN-alpha 20 mins, CD3 cells; read-out: IC50 on pSTAT1 inhibition in h WB
Experimental: Phosphorylation Inhibition of STAT in Human PBMC and Human Whole Blood Testing:
The inhibitory potential of test articles in human PBMC and human whole blood assay was evaluated by the method of flow cytometry.
IFN-alpha will activate JAK1 and TYK2 kinase in T cells by binding to IFN receptors, and then lead to phosphorylation of STAT1 and STAT2. The phosphorylated STAT1 enter nuclear and promote transcription and expression of IFN-gamma. To evaluate the efficacy of TYK2i in T cells, freshly prepared human PBMC or freshly collected human whole blood will be stimulated with certain unit of human IFN-alpha (Universal Type I IFN(1MU), R&D, 11200-2) for 20 mins in incubator. After stimulation, fix cells with Phosflow™ Fix Buffer I (BD, 557870), and then collect fixed cells by centrifugation (500 g, 8 min). Wash cells once with pre-cooled PBS, and then permeabilize cells with cold Perm Buffer III buffer (BD, 558050) for 45 mins on ice. Collect cells by centrifugation (600 g, 8 min) and washed twice with cold PBS. Stain cells with anti-human CD3 (FITC Mouse Anti-Human CD3, BD, 555332) and anti-pSTAT1_Y701(Alexa Fluor 647 Mouse Anti-Stat1 (pY701), BD, 612597) antibodies. Detect pSTAT1 by flow cytometry (CytoFlex S) and analyze data with FlowJo and GraphPad Prism 8 software. IC50 values of test articles were determined using 4-parameter logistic equation.

[5] = dog liver microsomes, read-out: Dog LM Clint
[6] = dog liver microsomes, read-out: Dog LM T½
[7] = human liver microsomes, read-out: Human LM Clint
[8] = human liver microsomes, read-out: Human LM T½
[9] = rat liver microsomes, read-out: Rat LM Clint
[10] = rat liver microsomes, read-out: Rat LM T½

T2 sequence (P29597 589-875 limits assumed): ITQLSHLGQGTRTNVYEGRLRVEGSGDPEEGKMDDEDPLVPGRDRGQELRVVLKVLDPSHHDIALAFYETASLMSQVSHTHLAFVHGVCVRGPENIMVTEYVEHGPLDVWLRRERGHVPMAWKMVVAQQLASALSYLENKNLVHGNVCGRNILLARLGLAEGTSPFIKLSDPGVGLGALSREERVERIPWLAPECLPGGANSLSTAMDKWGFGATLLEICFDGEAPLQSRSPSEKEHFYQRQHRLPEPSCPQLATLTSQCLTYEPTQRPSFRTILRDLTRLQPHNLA
T3 sequence (P23458 583-855 limits assumed): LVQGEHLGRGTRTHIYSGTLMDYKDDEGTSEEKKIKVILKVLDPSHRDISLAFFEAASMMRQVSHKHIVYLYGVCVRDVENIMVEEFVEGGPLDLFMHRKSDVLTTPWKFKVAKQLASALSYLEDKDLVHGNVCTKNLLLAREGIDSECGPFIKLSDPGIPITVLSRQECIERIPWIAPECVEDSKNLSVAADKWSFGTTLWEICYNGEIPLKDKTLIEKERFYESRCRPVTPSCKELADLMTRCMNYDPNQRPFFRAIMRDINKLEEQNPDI
T1 sequence (P29597 whole entry P760L): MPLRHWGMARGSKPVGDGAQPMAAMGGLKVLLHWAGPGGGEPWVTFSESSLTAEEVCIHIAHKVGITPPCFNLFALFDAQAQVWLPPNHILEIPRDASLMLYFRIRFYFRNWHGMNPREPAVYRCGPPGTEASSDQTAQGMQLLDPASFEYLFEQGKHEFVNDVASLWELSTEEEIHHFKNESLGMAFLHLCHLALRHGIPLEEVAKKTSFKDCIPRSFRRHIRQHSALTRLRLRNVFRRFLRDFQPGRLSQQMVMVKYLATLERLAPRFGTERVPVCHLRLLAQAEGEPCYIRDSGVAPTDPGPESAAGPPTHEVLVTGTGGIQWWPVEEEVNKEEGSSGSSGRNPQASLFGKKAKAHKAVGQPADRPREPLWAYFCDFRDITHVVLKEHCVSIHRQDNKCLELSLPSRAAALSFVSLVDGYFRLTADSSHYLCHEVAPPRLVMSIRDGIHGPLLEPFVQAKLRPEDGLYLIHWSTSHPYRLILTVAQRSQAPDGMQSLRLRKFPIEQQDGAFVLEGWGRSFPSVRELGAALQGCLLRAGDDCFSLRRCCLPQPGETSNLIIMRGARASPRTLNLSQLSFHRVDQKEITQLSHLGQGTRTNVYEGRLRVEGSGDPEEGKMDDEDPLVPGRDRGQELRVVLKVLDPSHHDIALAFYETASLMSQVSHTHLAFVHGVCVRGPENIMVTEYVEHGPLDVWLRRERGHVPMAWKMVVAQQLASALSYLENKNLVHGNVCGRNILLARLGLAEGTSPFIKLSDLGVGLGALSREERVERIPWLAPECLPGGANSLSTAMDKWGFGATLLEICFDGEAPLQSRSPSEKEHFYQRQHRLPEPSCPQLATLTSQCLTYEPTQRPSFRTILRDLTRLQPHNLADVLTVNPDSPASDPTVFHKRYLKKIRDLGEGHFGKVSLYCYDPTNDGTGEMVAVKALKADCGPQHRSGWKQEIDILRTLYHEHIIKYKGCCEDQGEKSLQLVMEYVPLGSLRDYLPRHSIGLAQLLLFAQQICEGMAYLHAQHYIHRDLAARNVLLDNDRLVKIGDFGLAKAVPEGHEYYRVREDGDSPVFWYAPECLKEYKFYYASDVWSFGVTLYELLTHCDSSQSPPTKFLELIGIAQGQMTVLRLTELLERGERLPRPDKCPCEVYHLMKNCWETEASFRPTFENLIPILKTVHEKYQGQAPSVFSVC

SMILES	fraction unbound at 5 h [1]	GI50 [2] [µM]	IC50 (TYK2-JH2 domain) [µM]	microsomal CLint at 1 μM [3, 5] [µL/min/mg]	half-life at 1 μM [3, 6] [h]	microsomal CLint at 1 μM [3, 7] [µL/min/mg]	half-life at 1 μM [3, 8] [h]	microsomal CLint at 1 μM [3, 9] [µL/min/mg]	half-life at 1 μM [3, 10] [h]	JAK1/TYK2 selectivity (TYK2-JH2 domain)	IC50 (JAK1-JH2 domain) [µM]	CLint scaled at 1 μM [4] [L/h/kg]	half-life at 1 μM [4] [h]	IC50 (pSTAT1) [µM]
CNC(=O)c1cnc(NC(=O)C2CC2)nc1Nc1cccc(-c2ncn(C)n2)c1OC [Example 65, 2-(Cyclopropanecarboxamido)-4-((2-methoxy-3-(1-methyl-1H-1,2,4-triazol-3-yl)phenyl)amino)-N-methylpyrimidine-5-carboxamide]	0.061	0.172	–	–	–	–	–	–	–	–	–	–	–	–
[2H]C([2H])([2H])NC(=O)c1cnc(NC(=O)C2CC2)cc1Nc1cn(C)c2c(F)cn(CC(F)F)c(=O)c12 [Example 158, 6-(Cyclopropanecarboxamido)-4-((5-(2,2-difluoroethyl)-7-fluoro-1-methyl-4-oxo-4,5-dihydro-1H-pyrrolo[3,2-c]pyridin-3-yl)amino)-N-(methyl-d3)nicotinamide]	0.039	0.0684	0.000948	< 7.4	> 3.11	15.2	1.52	26.4	0.875	–	–	–	–	–
[2H]C([2H])([2H])NC(=O)c1cnc(NC(=O)C2CC2)cc1Nc1ccn2ncc(CO)c2c1OC [Example 225, 6-(Cyclopropanecarboxamido)-4-((3-(hydroxymethyl)-4-methoxypyrazolo[1,5-a]pyridin-5-yl)amino)-N-(methyl-d3)nicotinamide]	0.346	0.565	0.000868	–	–	–	–	–	–	17.5	0.0152	–	–	–
[2H]C([2H])([2H])NC(=O)c1cnc(NC(=O)C2CC2)cc1Nc1csc2ncn(CC)c(=O)c12 [Example 216, 6-(Cyclopropanecarboxamido)-4-((3-ethyl-4-oxo-3,4-dihydrothieno[2,3-d]pyrimidin-5-yl)amino)-N-(methyl-d3)nicotinamide]	0.041	0.181	0.000525	–	–	–	–	–	–	–	–	–	–	–
CNC(=O)c1cnc(NC(=O)C2CC2)cc1Nc1nn(C)c2ccn(CC(F)(F)F)c(=O)c12 [Example 52, 6-(Cyclopropanecarboxamido)-N-methyl-4-((1-methyl-4-oxo-5-(2,2,2-trifluoroethyl)-4,5-dihydro-1H-pyrazolo[4,3-c]pyridin-3-yl)amino)nicotinamide]	0.041	0.127	–	11.1	2.08	8.05	2.87	30.8	0.75	–	–	–	–	–
[2H]C([2H])([2H])NC(=O)c1cnc(NC(=O)C2CC2)cc1Nc1ccc2cnn(C([2H])([2H])C([2H])([2H])[2H])c2c1OC([2H])([2H])[2H] [Example 134, 6-(Cyclopropanecarboxamido)-4-((1-(ethyl-d5)-7-(methoxy-d3)-1H-indazol-6-yl)amino)-N-(methyl-d3)nicotinamide]	0.049	0.0614	–	–	–	–	–	–	–	–	–	1.08	1.64	–
[2H]C([2H])([2H])NC(=O)c1cnc(Nc2ccn(C)n2)cc1Nc1cc(F)c2cnn(CC)c2c1OC [Example 151, 4-((1-Ethyl-4-fluoro-7-methoxy-1H-indazol-6-yl)amino)-N-(methyl-d3)-6-((1-methyl-1H-pyrazol-3-yl)amino)nicotinamide]	–	0.0777	0.00046	46.8	0.494	63.5	0.364	66.3	0.348	28.5	0.0131	0.546	3.23	1.86
[2H]C([2H])([2H])NC(=O)c1cnc(NC(=O)C2CC2)cc1Nc1nn(C)c2ccn(CC(F)(F)F)c(=O)c12 [Example 53, 6-(Cyclopropanecarboxamido)-N-(methyl-d3)-4-((1-methyl-4-oxo-5-(2,2,2-trifluoroethyl)-4,5-dihydro-1H-pyrazolo[4,3-c]pyridin-3-yl)amino)nicotinamide]	0.286	0.144	0.000293	–	–	–	–	–	–	–	–	–	–	–
[2H]C([2H])([2H])NC(=O)c1cnc(NC(=O)C2CC2)cc1Nc1nn(CCCOC)c2ccn(CC(F)(F)F)c(=O)c12 [Example 96, 6-(Cyclopropanecarboxamido)-4-((1-(3-methoxypropyl)-4-oxo-5-(2,2,2-trifluoroethyl)-4,5-dihydro-1H-pyrazolo[4,3-c]pyridin-3-yl)amino)-N-(methyl-d3)nicotinamide]	0.171	0.351	–	–	–	16.7	1.38	–	–	–	–	–	–	–
[2H]C([2H])([2H])NC(=O)c1cnc(NC(=O)C2CC2)cc1Nc1ccn2ncc(COC)c2c1OC [Example 226, 6-(Cyclopropanecarboxamido)-4-((4-methoxy-3-(methoxymethyl)pyrazolo[1,5-a]pyridin-5-yl)amino)-N-(methyl-d3)nicotinamide]	0.126	0.221	0.00146	–	–	–	–	–	–	38.8	0.0565	–	–	–
